Experimental data as given in patent publication EP0021678B1, “1-Sulpho-2-oxoazetidine derivatives, their production and pharmaceutical compositions thereof” (Takeda Chemical Industries, Ltd., priority 1979, dated 1981).
Like-named read-outs stand apart in the source and are kept apart here.

Columns and labels:
Experiment in all cases: Anti-bacterial test, minimum inhibitory concentration on agar
Assay type in all cases: cell-based
Candida albicans TA = details: for MIC: read-out: Minimum inhibitory concentration
Description: (§1) The compound (I) thus obtained is useful as a drug, being active against certain gram-positive and gram-negative bacteria. By way of example, the compounds are active against the following micro-organisms.
(§2) The media and compounds employed in the anti-bacterial test are as follows: • Media: • TSA = Trypticase soy agar • [Baltimore Biologicals (U.S.A.)] • B-TSA = Blood trypticase soy agar • Compounds: • Compound A = Sodium 3-[2-(2-amino-4-thiazolyl)-2-methoxyiminoacetamido]-2-oxo-azetidine-1-sulphonate • Compound B = Sodium 3-[D(-)-N-(4-ethyl-2,3-dioxo-1-piperazinocarbonyl)-phenyl-glycin- amido]-2-oxoazetidine-1-sulphonate • Compound C = Sodium 3-[D(-)-N-(4-ethyl-2,3-dioxo-1-piperazinocarbonyl)phenylglycinamido]-3-methoxy-2-oxoazetidine-1-sulphonate • Compound D = Sodium 3-[2-(4-ethyl-2,3-dioxo-1-piperazinocarboxamido)-2-(2-amino-4-thiazolyl)-acetamido]-2-oxoazetidine-1-sulphonate • Compound E = Sodium 3-[DL-2-(4-ethyl-2,3-dioxo-1-piperazinocarboxamido)-2-thienylacetamido]-2-oxoazetidine-1-sulphonate • Compound F = Sodium 3-[D-2-(4-ethyl-2,3-dioxo-1-piperazinocarboxamido)-2-thienylacetamido]-2-oxoazetidine-1-sulphonate • Compound G = Sodium 3-[D-2-(4-n-octyl-2,3-dioxo-1-piperazinocarboxamido)-2-phenylacetamido]-2-oxoazetidine-1-sulphonate • Compound H = Sodium 3-[2-(4-n-octyl-2,3-dioxo-1-piperazinocarboxamido)-2-(2-amino-4-thiazolyl)-acetamido]-2-oxoazetidine-1-sulphonate • Compound I = Sodium 3-[D-2-[(2-oxo-3-furfurylideneaminoimidazolidin-1-yl)-carboxamido]-2-phenylacetamido]-2-oxoazetidine-1-sulphonate • Compound J = Sodium 3-[2-(4-n-octyl-2,3-dioxo-1-piperazinocarboxamido)-2-thienylacetamido]-2-oxoazetidine-1-sulphonate • Compound K = Sodium 3-[D-2-[[2-oxo-3-(thiophen-2-aidoimino)-imidazolidin-1-yl]-carboxamido]-2-phenylacetamido]-2-oxoazetidine-1-sulphonate • Compound L = Sodium 3-[2-[(2-oxo-3-furfurylideneaminoimidazolidin-1-yl)-carboxamido]-2-thienylacetamido]-2-oxoazetidine-1-sulphonate

[1] = test system: Staphylococcus aureus 1840
Description: as §1, §2

[2] = test system: Streptococcus mitis America; details: for MIC: read-out: Minimum inhibitory concentration
Description: as §1, §2

[3] = test system: Streptococcus pyogenes E—14; details: for MIC: read-out: Minimum inhibitory concentration
Description: as §1, §2

[4] = test system: Acinetobacter calcoaceticus IFO 13006
Description: as §1, §2

[5] = test system: Corynebacterium diphtheriae Toronto; details: for MIC: read-out: Minimum inhibitory concentration
Description: as §1, §2

[6] = test system: Streptococcus faecium IFO 3128; details: for MIC: Enterococcus faecium
Description: as §1, §2

[7] = test system: Pseudomonas aeruginosa U 31
Description: as §1, §2

[8] = test system: Staphylococcus aureus 308A—1; details: for MIC: read-out: Minimum inhibitory concentration
Description: as §1, §2

[9] = test system: Enterobacter cloacae IFO 12937
Description: as §1, §2

[10] = test system: Proteus mirabilis IFO 3849
Description: as §1, §2

[11] = test system: Serratia marcescens IFO 12648
Description: as §1, §2

Klebsiella pneumoniae DT = details: for MIC: read-out: Minimum inhibitory concentration
Description: as §1, §2

[12] = test system: Escherichia coli NIHJ JC—2; details: for MIC: read-out: Minimum inhibitory concentration
Description: as §1, §2

[13] = test system: Streptococcus pneumoniae Type I; details: for MIC: read-out: Minimum inhibitory concentration
Description: as §1, §2

[14] = test system: Proteus morganii IFO 3168; details: for MIC: Morganella morganii
Description: as §1, §2

[15] = test system: Bordetella bronchiseptica Sagami; details: for MIC: read-out: Minimum inhibitory concentration
Description: as §1, §2

[16] = test system: Staphylococcus aureus FDA209P; details: for MIC: Staphylococcus aureus, FDA209P, read-out: Minimum inhibitory concentration
Description: as §1, §2

Escherichia coli O—111 = details: medium TSA
Description: as §1, §2

[17] = test system: Pseudomonas aeruginosa IFO 3455
Description: as §1, §2

[18] = test system: Citrobacter freundii IFO 12681
Description: as §1, §2

[19] = test system: Proteus vulgaris IFO 3988
Description: as §1, §2

[20] = test system: Streptococcus pyogenes S—8; details: for MIC: read-out: Minimum inhibitory concentration
Description: as §1, §2

Escherichia coli T-7 = details: for MIC: T7, medium TSA
Description: as §1, §2

[21] = Staphylococcus aureus FDA209P, medium B—TSA
[22] = Candida albicans TA, medium TSA
[23] = Streptococcus mitis America, medium B—TSA
[24] = Streptococcus pyogenes E—14, medium B—TSA
[25] = Corynebacterium diphtheriae Toronto, medium B—TSA
[26] = Staphylococcus aureus 308A—1, medium TSA
[27] = Klebsiella pneumoniae DT, medium TSA
[28] = Escherichia coli NIHJ JC—2, medium TSA
[29] = Streptococcus pneumoniae Type I, medium B—TSA
[30] = Bordetella bronchiseptica Sagami, medium B—TSA
[31] = Staphylococcus aureus FDA209P, medium TSA
[32] = Streptococcus pyogenes S—8, medium B—TSA
[33] = Staphylococcus aureus 1840, medium TSA, read-out: Minimum inhibitory concentration
[34] = IFO13006, Acinetobacter calcoaceticus IFO 13006, medium TSA, read-out: Minimum inhibitory concentration
[35] = IFO3128, Streptococcus faecium IFO 3128, medium B—TSA, read-out: Minimum inhibitory concentration
[36] = U31, Pseudomonas aeruginosa U 31, medium TSA, read-out: Minimum inhibitory concentration
[37] = IFO12937, Enterobacter cloacae IFO 12937, medium TSA, read-out: Minimum inhibitory concentration
[38] = IFO3849, Proteus mirabilis IFO 3849, medium TSA, read-out: Minimum inhibitory concentration
[39] = IFO12648, Serratia marcescens IFO 12648, medium TSA, read-out: Minimum inhibitory concentration
[40] = IFO3168, Proteus morganii IFO 3168, medium TSA, read-out: Minimum inhibitory concentration
[41] = IFO3455, Pseudomonas aeruginosa IFO 3455, medium TSA, read-out: Minimum inhibitory concentration
[42] = IFO12681, Citrobacter freundii IFO 12681, medium TSA, read-out: Minimum inhibitory concentration
[43] = IFO3988, Proteus vulgaris IFO 3988, medium TSA, read-out: Minimum inhibitory concentration

## CON=C(C(=O)NC1CN(S(=O)(=O)[O-])C1=O)c1csc(N)n1.[Na+] (stereo not shown) [Compound A, Sodium 3-[2-(2-amino-4-thiazolyl)-2-methoxyiminoacetamido]-2-oxo-azetidine-1-sulphonate]
Candida albicans TA; Candida albicans
  MIC: > 100 µg/mL
[1]; Staphylococcus aureus, 1840, read-out: Minimum inhibitory concentration
  MIC: 100 µg/mL
[2]; Streptococcus mitis
  MIC: 25 µg/mL
[3]; Streptococcus pyogenes
  MIC: 3.13 µg/mL
[4]; Acinetobacter calcoaceticus, IFO13006, read-out: Minimum inhibitory concentration
  MIC: 6.25 µg/mL
[5]; Corynebacterium diphtheriae
  MIC: 1.56 µg/mL
[6]; IFO3128, read-out: Minimum inhibitory concentration
  MIC: > 100 µg/mL
[7]; Pseudomonas aeruginosa, U31, read-out: Minimum inhibitory concentration
  MIC: > 100 µg/mL
[8]; Staphylococcus aureus
  MIC: 25 µg/mL
[9]; Enterobacter cloacae, IFO12937, read-out: Minimum inhibitory concentration
  MIC: > 100 µg/mL
[10]; Proteus mirabilis, IFO3849, read-out: Minimum inhibitory concentration
  MIC: 6.25 µg/mL
[11]; Serratia marcescens, IFO12648, read-out: Minimum inhibitory concentration
  MIC: 12.5 µg/mL
Klebsiella pneumoniae DT; Klebsiella pneumoniae
  MIC: 0.78 µg/mL
[12]; Escherichia coli
  MIC: 0.78 µg/mL
[13]; Streptococcus pneumoniae
  MIC: 12.5 µg/mL
[14]; IFO3168, read-out: Minimum inhibitory concentration
  MIC: 25 µg/mL
[15]; Bordetella bronchiseptica
  MIC: 100 µg/mL
[16]; [21]
  Minimum inhibitory concentration: 50 µg/mL
[16]
  MIC: 50 µg/mL
Escherichia coli O—111
  MIC: 0.39 µg/mL
[17]; Pseudomonas aeruginosa, IFO3455, read-out: Minimum inhibitory concentration
  MIC: 6.25 µg/mL
[18]; Citrobacter freundii, IFO12681, read-out: Minimum inhibitory concentration
  MIC: 1.56 µg/mL
[19]; Proteus vulgaris, IFO3988, read-out: Minimum inhibitory concentration
  MIC: 1.56 µg/mL
[20]; Streptococcus pyogenes
  MIC: 3.13 µg/mL
Escherichia coli T-7
  MIC: > 100 µg/mL

## O=C(NC1CN(S(=O)(=O)[O-])C1=O)C(NC(=O)N1CCN(N=Cc2ccco2)C1=O)c1cccs1.[Na+] (stereo not shown) [Compound L, Sodium 3-[2-[(2-oxo-3-furfurylideneaminoimidazolidin-1-yl)-carboxamido]-2-thienylacetamido]-2-oxoazetidine-1-sulphonate]
Candida albicans TA; [22]
  Minimum inhibitory concentration: >100 µg/mL
[1]; Staphylococcus aureus 1840, medium TSA
  Minimum inhibitory concentration: 25 µg/mL
[2]; [23]
  Minimum inhibitory concentration: 6.25 µg/mL
[3]; [24]
  Minimum inhibitory concentration: 0.78 µg/mL
[4]; Acinetobacter calcoaceticus IFO 13006, medium TSA
  Minimum inhibitory concentration: 50 µg/mL
[5]; [25]
  Minimum inhibitory concentration: 1.56 µg/mL
[6]; Streptococcus faecium IFO 3128, medium B—TSA
  Minimum inhibitory concentration: >100 µg/mL
[7]; Pseudomonas aeruginosa U 31, medium TSA
  Minimum inhibitory concentration: >100 µg/mL
[8]; [26]
  Minimum inhibitory concentration: 3.13 µg/mL
[9]; Enterobacter cloacae IFO 12937, medium TSA
  Minimum inhibitory concentration: 25 µg/mL
[10]; Proteus mirabilis IFO 3849, medium TSA
  Minimum inhibitory concentration: 0.78 µg/mL
[11]; Serratia marcescens IFO 12648, medium TSA
  Minimum inhibitory concentration: 1.56 µg/mL
Klebsiella pneumoniae DT; [27]
  Minimum inhibitory concentration: <0.1 µg/mL
[12]; [28]
  Minimum inhibitory concentration: 1.56 µg/mL
[13]; [29]
  Minimum inhibitory concentration: 1.56 µg/mL
[14]; Proteus morganii IFO 3168, medium TSA
  Minimum inhibitory concentration: 12.5 µg/mL
[15]; [30]
  Minimum inhibitory concentration: >100 µg/mL
[16]; [21]
  Minimum inhibitory concentration: 6.25 µg/mL
[16]; [31]
  Minimum inhibitory concentration: 6.25 µg/mL
Escherichia coli O—111
  Minimum inhibitory concentration: <0.1 µg/mL
[17]; Pseudomonas aeruginosa IFO 3455, medium TSA
  Minimum inhibitory concentration: 3.13 µg/mL
[18]; Citrobacter freundii IFO 12681, medium TSA
  Minimum inhibitory concentration: 1.56 µg/mL
[19]; Proteus vulgaris IFO 3988, medium TSA
  Minimum inhibitory concentration: 0.2 µg/mL
[20]; [32]
  Minimum inhibitory concentration: 0.78 µg/mL
Escherichia coli T-7; medium TSA
  Minimum inhibitory concentration: >100 µg/mL

## CCN1CCN(C(=O)N[C@@H](C(=O)NC2CN(S(=O)(=O)O)C2=O)c2ccccc2)C(=O)C1=O (single isomer, unassigned) [Compound B, Sodium 3-[D(-)-N-(4-ethyl-2,3-dioxo-1-piperazinocarbonyl)-phenyl-glycin-amido]-2-oxoazetidine-1-sulphonate]
Candida albicans TA; [22]
  MIC: > 100 µg/mL
[1]; [33]
  MIC: 25 µg/mL
[2]; [23]
  MIC: 25 µg/mL
[3]; [24]
  MIC: 3.13 µg/mL
[4]; [34]
  MIC: 25 µg/mL
[5]; [25]
  MIC: 3.13 µg/mL
[6]; [35]
  MIC: > 100 µg/mL
[7]; [36]
  MIC: > 100 µg/mL
[8]; [26]
  MIC: 3.13 µg/mL
[9]; [37]
  MIC: 50 µg/mL
[10]; [38]
  MIC: 0.78 µg/mL
[11]; [39]
  MIC: 3.13 µg/mL
Klebsiella pneumoniae DT; [27]
  MIC: 0.2 µg/mL
[12]; [28]
  MIC: 1.56 µg/mL
[13]; [29]
  MIC: 6.25 µg/mL
[14]; [40]
  MIC: 25 µg/mL
[15]; [30]
  MIC: > 100 µg/mL
[16]; [21]
  MIC: 6.25 µg/mL
[16]; [31]
  MIC: 6.25 µg/mL
Escherichia coli O—111
  MIC: 0.2 µg/mL
[17]; [41]
  MIC: 1.56 µg/mL
[18]; [42]
  MIC: 6.25 µg/mL
[19]; [43]
  MIC: 0.1 µg/mL
[20]; [32]
  MIC: 6.25 µg/mL
Escherichia coli T-7
  MIC: > 100 µg/mL

## O=C(NC1CN(S(=O)(=O)O)C1=O)[C@H](NC(=O)N1CCN(N=Cc2cccs2)C1=O)c1ccccc1 (stereo partly drawn) [Compound K, Sodium 3-[D-2-[[2-oxo-3-(thiophen-2-aidoimino)-imidazolidin-1-yl]-carboxamido]-2-phenylacetamido]-2-oxoazetidine-1-sulphonate]
Candida albicans TA; [22]
  MIC: > 100 µg/mL
[1]; [33]
  MIC: 50 µg/mL
[2]; [23]
  MIC: 1.56 µg/mL
[3]; [24]
  MIC: 0.78 µg/mL
[4]; [34]
  MIC: 50 µg/mL
[5]; [25]
  MIC: 3.13 µg/mL
[6]; [35]
  MIC: > 100 µg/mL
[7]; [36]
  MIC: > 100 µg/mL
[8]; [26]
  MIC: 3.13 µg/mL
[9]; [37]
  MIC: 12.5 µg/mL
[10]; [38]
  MIC: 1.56 µg/mL
[11]; [39]
  MIC: 1.56 µg/mL
Klebsiella pneumoniae DT; [27]
  MIC: 0.39 µg/mL
[12]; [28]
  MIC: 1.56 µg/mL
[13]; [29]
  MIC: 1.56 µg/mL
[14]; [40]
  MIC: 12.5 µg/mL
[15]; [30]
  MIC: > 100 µg/mL
[16]; [21]
  MIC: 6.25 µg/mL
[16]; [31]
  MIC: 6.25 µg/mL
Escherichia coli O—111
  MIC: 0.39 µg/mL
[17]; [41]
  MIC: 3.13 µg/mL
[18]; [42]
  MIC: 1.56 µg/mL
[19]; [43]
  MIC: 0.39 µg/mL
[20]; [32]
  MIC: 1.56 µg/mL
Escherichia coli T-7
  MIC: > 100 µg/mL
